Some test systems named below: A549 NSCLC; ACHN renal; HCT-116 colon; HOP-62 NSCLC; LOX IMVI melanoma; M14 melanoma; MALME-3M melanoma; NCI-H460 lung; SK-MEL-2 melanoma; K-562 leukemia.
Assay in all cases: inhibition of tumour cell growth, NCI panel, 48 h

Molecules are shown by their SMILES. Values joined by “and” are separate entries in the source; they are usually repeats but may differ in a detail not shown here. Equal values may be shown once.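 Exposure lasted 48 hours, with cells grown in 96-well plates and compounds tested at five concentrations. Abbreviation: GI50, concentration required for 50% inhibition of growth. TGI: total growth inhibition.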

For the molecule `Cc1cc2c(SCc3ccccc3Cl)nc(N)nc2nc1C`, the TGI with A549 NSCLC, in the assay on ACHN renal, in the assay on HCT-116 colon, in the assay with HOP-62 NSCLC, in the assay with LOX IMVI melanoma and with M14 melanoma was > 100 µM each time. Further, the TGI in the assay on MALME-3M melanoma, with NCI-H460 lung and with SK-MEL-2 melanoma was > 100 µM in each case.
Regarding `COc1cc([C@H]2c3cc(O)c(OC)cc3C[C@]3(O)[C@@H]2CO[C@@H]3O)ccc1O`, the TGI with A549 NSCLC, in the assay on ACHN renal, in the assay on HCT-116 colon, with HOP-62 NSCLC, in the assay with K-562 leukemia and with LOX IMVI melanoma was > 100 µM in each case. For the same molecule, the TGI in the assay on M14 melanoma, with NCI-H460 lung and in the assay with SK-MEL-2 melanoma was > 100 µM in each case.
As for `CC1=C2[C@@H](c3ccccc3)C3C=CC2(C=C3C(F)(F)F)N(C(=O)NC2CCCCC2)C1=O` (stereo not given in full), the TGI in the assay with A549 NSCLC, in the assay with ACHN renal, in the assay on HCT-116 colon, in the assay with HOP-62 NSCLC, in the assay on K-562 leukemia and in the assay with LOX IMVI melanoma was > 100 µM throughout. Besides, the TGI in the assay with M14 melanoma, in the assay with MALME-3M melanoma and in the assay on NCI-H460 lung was > 100 µM in each case.
`NC1=NN(c2ccccc2)C(=O)C1/C(=N\NC(=O)c1cc2ccccc2cc1O)C(=O)Nc1ccc(Cl)cc1` (stereo not given): the TGI in the assay on A549 NSCLC was > 100 µM; with ACHN renal, > 100 µM; with HCT-116 colon, > 100 µM; with HOP-62 NSCLC it was > 100 µM; in the assay on K-562 leukemia, > 100 µM; with M14 melanoma, 74.7 µM. Besides, the TGI with MALME-3M melanoma, with NCI-H460 lung and with SK-MEL-2 melanoma was > 100 µM in each case.
With `NC(=O)NC(=O)C1CCC(=O)N1S(=O)(=O)c1ccc(Cl)cc1` (stereo not given), the TGI in the assay on A549 NSCLC, in the assay with ACHN renal, in the assay with HCT-116 colon, in the assay on HOP-62 NSCLC, with K-562 leukemia and in the assay with M14 melanoma was > 100 µM each time. In addition, the TGI in the assay on MALME-3M melanoma, in the assay with NCI-H460 lung and in the assay with SK-MEL-2 melanoma was > 100 µM each time.
On to `COC(=O)C(NC(=O)c1ccccc1)c1ccc(OC)c(I)c1` (stereo not given), for which the GI50 is 62.1 µM in the assay on A549 NSCLC; 63.8 µM in the assay with ACHN renal; 33.7 µM in the assay on HCT-116 colon; > 100 µM in the assay on HOP-62 NSCLC; 35.6 µM with K-562 leukemia; 46.9 µM with LOX IMVI melanoma. Moreover, the GI50 with M14 melanoma is 52.3 µM; in the assay on NCI-H460 lung it was 67600 nM; in the assay on SK-MEL-2 melanoma, > 100 µM. For the same molecule, the TGI with A549 NSCLC, in the assay with ACHN renal, with HCT-116 colon, in the assay on HOP-62 NSCLC, with K-562 leukemia and in the assay on LOX IMVI melanoma was > 100 µM in each case. The TGI with M14 melanoma, in the assay with NCI-H460 lung and in the assay on SK-MEL-2 melanoma was > 100 µM throughout.
For `CN(C)c1ccc(/C=C2\Cc3ccccc3C2=O)cc1Br`, the TGI with A549 NSCLC, in the assay on ACHN renal, in the assay on HOP-62 NSCLC, in the assay on K-562 leukemia, in the assay with M14 melanoma and in the assay with MALME-3M melanoma was > 100 µM throughout. Moreover, the TGI with NCI-H460 lung and with SK-MEL-2 melanoma was > 100 µM throughout.
Turning to `O=NNc1nc(-c2ccccn2)nc2ccccc12`, the TGI with A549 NSCLC is > 100 µM; in the assay with ACHN renal, 42.5 µM; with HCT-116 colon, 16.5 µM; in the assay on HOP-62 NSCLC, 48.1 µM; in the assay with K-562 leukemia, > 100 µM; with M14 melanoma it was 22 µM. Also, the TGI in the assay with MALME-3M melanoma was 19.6 µM; with NCI-H460 lung, > 100 µM; in the assay on SK-MEL-2 melanoma, 39.5 µM.
In the case of `Cc1c2cc[n+](C)cc2c(C)c2c1[nH]c1ccc(Oc3ccccc3)cc12`, the TGI in the assay on A549 NSCLC was > 100 µM; with ACHN renal it was > 38.4 µM and 19 µM; in the assay with HCT-116 colon, > 100 µM; with HOP-62 NSCLC it was 38 µM and 26.3 µM; in the assay on K-562 leukemia, > 24 µM; with LOX IMVI melanoma it was 11.3 µM and 50.1 µM. Also, the TGI in the assay on M14 melanoma is > 61.5 µM and 40.1 µM; with NCI-H460 lung it was 14 µM and 11.4 µM. Further, the GI50 with LOX IMVI melanoma was 2.96 µM; in the assay with NCI-H460 lung, 1640 nM and 1060 nM.
For the molecule `CCOC(=O)C1C(=O)C(=O)N2CCc3c([nH]c4ccccc34)C12` (stereo not given), the TGI in the assay with A549 NSCLC, in the assay with HCT-116 colon, in the assay with HOP-62 NSCLC, with K-562 leukemia, with M14 melanoma and with MALME-3M melanoma was > 100 µM each time. Besides, the TGI with SK-MEL-2 melanoma was > 100 µM.
Regarding `COc1cc(/C=C/C(=O)c2c(-c3ccc(Cl)cc3)nc3sc(C)nn23)cc(OC)c1OC`, the GI50 in the assay with A549 NSCLC was 49.5 µM; in the assay on ACHN renal, 20.8 µM; with HCT-116 colon, 15.7 µM; in the assay on HOP-62 NSCLC it was 10.4 µM; in the assay with K-562 leukemia, 4.49 µM; in the assay with LOX IMVI melanoma, 18.4 µM. Also, the values for the GI50 with M14 melanoma, with MALME-3M melanoma and in the assay with NCI-H460 lung were 55.2 µM, 25.6 µM and > 100000 nM, respectively. Further, the TGI with A549 NSCLC, in the assay with ACHN renal, in the assay with HCT-116 colon, in the assay with HOP-62 NSCLC, in the assay with K-562 leukemia and in the assay with LOX IMVI melanoma was > 100 µM throughout. The TGI in the assay on M14 melanoma, in the assay with MALME-3M melanoma and with NCI-H460 lung was > 100 µM each time.
For `O=C(Nc1ccccc1)Oc1ccccc1C1CCCCC1`, the TGI stood at 88.5 µM with A549 NSCLC; 90.2 µM in the assay with HCT-116 colon; 59.6 µM in the assay with HOP-62 NSCLC; 50.3 µM in the assay on K-562 leukemia; 26.8 µM with LOX IMVI melanoma; 56.7 µM in the assay with M14 melanoma. Moreover, the TGI is 57.1 µM in the assay with MALME-3M melanoma and 60 µM with NCI-H460 lung.
As for `O=C1COc2cc3c(cc2N1)SCC(=O)N3`, the TGI in the assay with A549 NSCLC, with HCT-116 colon, in the assay on HOP-62 NSCLC, with K-562 leukemia, with M14 melanoma and in the assay on MALME-3M melanoma was > 100 µM throughout. Besides, in the assay on SK-MEL-2 melanoma, the TGI is > 100 µM.

(Values after PubChem BioAssay (NCI).)
